Assays:
L6 myoblasts [1] = assay: Oxygen consumption rate dose response (Seahorse XF24); assay type: cell-based, rat
[2] = system: AMP-activated protein kinase; conditions: L6 cells, 40 min
L6 myoblasts [3] = conditions: 1 μM uncoupler, 1 μM oligomycin
[4] = system: isolated mouse liver mitochondria; conditions: 5 μM
L6 cells [5] = system: L6 cells
L6 myotubes = conditions: 5 min treatment
L6 cells [6] = conditions: 20 μM, 20 min
[7] = patients consuming ˜300 mg/d, over several months, no change in food intake; cited from earlier work
[8] = mouse, in vivo; cited from earlier work

Compound	shape of oxygen consumption dose response curve (L6 myoblasts [1])	AMPK activation [2]	respiration in the presence of oligomycin (L6 myoblasts [3])	electron donation to the ETC ([4]; after 2 μM rotenone)	effect on complex II (succinate-stimulated respiration) ([4]; succinate added at 20 min)	plasma membrane potential (L6 cells [5]; current clamp, resting membrane potential, 10 μM)	current under voltage clamp (L6 cells [5]; holding potential −70 mV, 1 μM and 10 μM)	plasma membrane conductance (L6 cells [5]; voltage clamp, −130 mV to −60 mV)	intracellular acidification relative to BAM15 (L6 myotubes) [fold]	cellular ATP levels (L6 cells [6])	average weight loss [7] [pounds per week]	metabolic effects in mice [8]
N#CC(C#N)=NNc1ccc(OC(F)(F)F)cc1 [FCCP, carbonyl cyanide p-trifluoromethoxyphenylhydrazone]	inverted bell shaped curve of effectiveness	activation of AMP-activated protein kinase	increase oxygen consumption in the presence of oligomycin	do not donate electrons to the ETC downstream of complex I	do not affect complex II	reversible and repeatable plasma membrane depolarization	induced an inward current	increase in conductance	2	loss of cellular ATP	–	–
O=[N+]([O-])c1ccc(O)c([N+](=O)[O-])c1 [DNP, 2,4-dinitrophenol]	–	–	–	–	–	–	–	–	–	–	1.5	improved serological glucose, triglyceride, and insulin levels, as well as decreased oxidative damage, reduced body weight, and increased longevity

Source: US11945825B2, “Compositions and methods for regulating glucose homeostasis and insulin action” (UNIVERSITY OF VIRGINIA PATENT FOUNDATION, priority 2012, dated 2024)
